Where a name gives a salt, the structure may show the parent alone.
Each compound was assayed against Bcl-xL/BAK (Homo sapiens, UniProt Q07817+Q16611) (assay: Inhibition of Bcl-xL (1 to 206, delta 45 to 84)-BAK (unknown origin) protein interaction by fluorescence polarization assay).
Sequence of Bcl-xL/BAK (Q07817 whole entry): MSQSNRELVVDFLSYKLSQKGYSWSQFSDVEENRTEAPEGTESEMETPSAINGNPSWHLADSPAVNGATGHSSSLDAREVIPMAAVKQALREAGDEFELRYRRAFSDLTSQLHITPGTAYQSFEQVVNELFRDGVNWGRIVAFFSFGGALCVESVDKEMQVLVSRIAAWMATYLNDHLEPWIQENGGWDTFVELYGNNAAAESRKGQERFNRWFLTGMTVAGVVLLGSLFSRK
Sequence of Bcl-xL/BAK (Q16611 whole entry): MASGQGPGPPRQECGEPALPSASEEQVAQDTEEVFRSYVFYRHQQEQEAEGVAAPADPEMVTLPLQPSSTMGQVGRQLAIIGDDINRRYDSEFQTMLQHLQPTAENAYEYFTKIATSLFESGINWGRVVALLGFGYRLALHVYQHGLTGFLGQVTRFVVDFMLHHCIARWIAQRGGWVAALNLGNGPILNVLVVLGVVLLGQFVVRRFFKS

SMILES | IC50
CCCC[C@H](CC)CNC(=N)NC(=N)NCCCCCCNC(=N)NC(=N)NC[C@@H](CC)CCCC | 25.7 µM
CCCC[C@@H](CC)CNC(=N)NC(=N)NCCCCCCNC(=N)NC(=N)NC[C@H](CC)CCCC | 21.3 µM
CCCCC(CC)CNC(=N)NC(=N)NCCCCCCNC(=N)NC(=N)NCC(CC)CCCC (mixture of isomers) [ALEXIDINE DIHYDROCHLORIDE] | 18.3 µM
